Measured values from patent US10464920B2, “Vicinal primary diamines associated with metal and/or free radical chelation motifs, and active against carbonyl and oxidative stress, and use thereof” (UNIVERSITE AMIENS PICARDIE JULES VERNE, priority 2015, dated 2019).

Experiments:
[1] = Cu2+ chelating properties by UV/Visible light spectrophotometry (murexide); type: physicochemical; conditions: 0.02-2 mM compound, CuSO4 0.25 mM solution, Hexamine buffer pH 5, RT 10 min
Procedure: J. Mol. Sci., 2009, 10, 5485-5497; Molecules, 2012, 17, 13457-13472). […] A Hexamine buffer 0.01 M/KCl 0.01 M (qsp 200 mL) of which the pH is adjusted to 5 using a solution of HCl 1N is first of all prepared. Solutions of CuSO4.5H2O at 0.5 mM (20 mL) and 0.25 mM (100 mL) are then carried out in this buffer, with the first being used to obtain the calibration curve. An aqueous solution of murexide at 1 mM must also be prepared extemporaneously (10 mL) as well as a stock solution of the compounds to be tested at 4.2 mM in Hexamine buffer 0.01 M/KCl 0.01 M or in a buffer and MeOH 75/25 mixture (6.2 mL). Various concentrations of the compounds to be tested are distributed in Hexamine buffer 0.01M/KCl 0.01M (pH=5) (Table 5) or in a buffer and MeOH 75/25 mixture in tubes for hemolysis (Table 6). The solution of CuSO4.5H2O at 0.25 mM (1 mL) is then added and this is allowed to incubate at RT for 10 min. Finally, the aqueous solution of murexide at 1 mM (0.1 mL) is introduced and is again allowed to incubate at RT for 1 min. The absorbances are then measured at 485 nm ([…]) and 520 nm ([…]) by UV/Visible light spectrophotometry (V-650 JASCO spectrometer) (measurements taken in triplicates). […] After introduction of the aqueous solution of murexide at 1 mM (0.1 mL), this is allowed to incubate at RT for 1 min and the absorbances are finally measured at 485 nm ([…]) and 520 nm ([…]) by UV/Visible light spectrophotometry.

[2] = test system: murine endothelial brain cells (bEnd.3); test: Cytotoxicity, cellular viability (CCK-8/WST-8) on bEnd.3; type: cell-based; conditions: mouse
Procedure: (§1) The cellular viability is evaluated by a colorimetric method based on the detection of the conversion of a salt of the tetrazolium (WST-8) by the metabolically active cells (CCK-8 kit, Sigma, Lyons, France) (Molecules, 2014, 19(8), 12048-12064; J. Pharmacol. Toxicol. Methods., 2007, 56(1), 58-62). Living cells have mitochondrial dehydrogenases that reduce the WST-8 (2-(2-methoxy-4-nitrophenyl)-3-(4-nitrophenyl)-5-(2,4-disulfophenyl)-2H-tetrazolium), monosodium salt) to formazan of an orange colour, which dissolves directly in the culture medium in the presence of 1-Methoxy PMS (1-methoxy-5-methylphenazinium methyl sulphate). After an incubation for 1 h at 37° C., the absorbance of the formazan is measured at 450 nm. The absorbance is directly proportional to the number of living cells.
(§2) Briefly, the cells are inoculated in 96-well plates at a rate of 5.10^3 cells per well in 100 μL of the suitable medium until subconfluence. The cells are then washed with D-PBS, then treated with various concentrations (10 μM, 100 μM) of the products to be tested in triplicates for 24 and 48 h. A positive control is carried out with 10% of DMSO. The CCK-8 (10 μL) solution is then added to each well for an incubation for 1 h at 37° C. The measurement of the absorbance is taken at 450 nm using a Perkin Elmer 2103 Envision® microplate reader.
(§3) The viability of the cells is expressed as a % of the control (untreated cells) by the mean±standard deviation of triplicates forming a representative experiment or of three independent experiments conducted in triplicate.

[3] = test system: rat pheochromocytoma cells, treated as neuronal cells (PC12); test: Cytotoxicity, cellular viability (CCK-8/WST-8) on PC12; type: cell-based; conditions: rat
Procedure: as §1, §2, §3

[4] = test system: human fibroblasts (MRC-5); test: Cytotoxicity, cellular viability (CCK-8/WST-8) on MRC-5; type: cell-based
Procedure: as §1, §2, §3

[5] = Formation of adducts with MGO, kinetic study by HPLC; type: physicochemical; conditions: compound 10 mM, MGO 20 mM, 37° C.; for disappearance of the free scavenger to the benefit of adducts with the MGO: after 15 min of incubation
Procedure: The compounds to be tested are incubated at 37° C. in the presence of MGO or of MDA. A kinetic study aiming to report on the formation of adducts with the MGO or MDA is then carried out via HPLC analysis.
The compounds to be tested (30 μmol) are dissolved in PBS (1.5 mL). An aqueous solution (qsp 1.25 mL) of MGO at 40% in water (250 μmol) is then prepared and in parallel, MDA bis-(diOEt)-acetal (250 μmol) is set to react with a solution of HCl 1N (2 eq) in water (qsp 1.25 mL) for 1 h at room temperature. An aqueous solution of NaOH 0.05N is also required to neutralise the reaction medium (5 mL).
The solution of the compound to be tested (625 μL—final concentration in the medium=10 mM) is then set to react with the solution of MGO or of MDA prepared extemporaneously (125 μL—final concentration in the medium=20 mM) in the presence of NaOH 0.05 N (0.5 mL).
The various mixtures are then incubated in the oven at 37° C. for 24 h.
A sampling of each mixture (100 μL) is taken at regular intervals of time (0.25; 0.5; 1; 5 and 24 h) and stored at −20° C. in order to stop the reaction. After dilution in a MeCN/H2O 98:2 mixture at room temperature, the HPLC analysis is carried out on a Shimadzu LCMS-2020 apparatus (UV chromatogram at 190 nm and mass spectrum in positive electrospray ionisation mode (ESI+)) after separation on the Waters Acquity column using a gradient of solvents H2O+HCOOH 0.1%/MeCN+HCOOH 0.1% (98/2 for 2 min, then 55/45 for 2 min and 45/55 for 3 min) with a flow rate of 0.3 mL/min at 40° C. and an injection of volume of 1 (“detection mode: scan, interface voltage: tuning file, DL voltage: 100 V, Q-array DC: 40 V, Q-array RF: 40 V”). A blank is first of all carried out using a solution containing the reaction medium without scavenger. Then, a free scavenger solution at 10 mM is used as a negative control and the carnosine as a reference of the literature. The proportion of adducts formed with the MGO or MDA (generally, tR=4.1 to 6.8 min) is then measured in relation to the quantity of remaining free scavenger (generally, tR=0.8 to 4.6 min) after measurement of the area under the curve of the corresponding peaks on the UV spectrum (measurements taken for a representative sample).

[6] = MRC-5, 10 μM, 24 h of treatment
[7] = MRC-5, 10 μM, 48 h of treatment
[8] = MRC-5, 100 μM, 24 h of treatment
[9] = MRC-5, 100 μM, 48 h of treatment

Row | SMILES | Cu^2+ chelating properties (complexation of the Cu^2+) [1] | viability of the cells as a percentage of the untreated cells ([2]; 24 h, 10 μM) [%] | viability of the cells as a percentage of the untreated cells ([2]; 24 h, 100 μM) [%] | viability of the cells as a percentage of the untreated cells ([2]; 48 h, 10 μM) [%] | viability of the cells as a percentage of the untreated cells ([2]; 48 h, 100 μM) [%] | viability of the cells as a percentage of the untreated cells ([3]; 24 h, 10 μM) [%] | viability of the cells as a percentage of the untreated cells ([3]; 24 h, 100 μM) [%] | viability of the cells as a percentage of the untreated cells ([3]; 48 h, 10 μM) [%] | viability of the cells as a percentage of the untreated cells ([3]; 48 h, 100 μM) [%] | viability of the cells as a percentage of the untreated cells [4, 6] [%] | viability of the cells as a percentage of the untreated cells [4, 7] [%] | viability of the cells as a percentage of the untreated cells [4, 8] [%] | viability of the cells as a percentage of the untreated cells [4, 9] [%] | adducts with the MGO with regards to the free scavenger ([5]; after 5 h of reaction, no HPLC separation, trend) | disappearance of the free scavenger to the benefit of adducts with the MGO [5]
1 | NCC(N)CCCCNC(=O)c1cc(O)c(O)c(O)c1 (stereo not shown) [Compound 30b, N-(5,6-diaminohexyl)-3,4,5-trihydroxybenzamide] | most active | 93 | 99 | 92 | 87 | 110 | 82 | 95 | 67 | 98 | 92 | 101 | 100 |  | 
2 | COc1cc(/C=C/C(=O)N2CCN(C(=O)CCC(N)CN)CC2)ccc1O (stereo not shown) [Compound 29a, (E)-4,5-diamino-1-(4-(3-(4-hydroxy-3-methoxyphenyl)acryloyl)piperazin-1-yl)pentan-1-one] | poor results | 98 | 87 | 90 | 83 | 100 | 120 | 94 | 87 | 103 | 104 | 99 | 103 | majority presence of AdB | 
3 | NCC(N)CCCCNC(=O)CCn1cccc(O)c1=O (stereo not shown) [Compound 37b, N-(5,6-diaminohexyl)-3-(3-hydroxy-2-oxopyridin-1(2H)-yl)propanamide] | most active | 126 | 115 | 101 | 100 | 138 | 124 | 115 | 107 | 113 | 103 | 113 | 101 |  | almost total disappearance of the free scavenger
4 | NCC(N)CCC(=O)NCCCn1cccc(O)c1=O (stereo not shown) [Compound 37c, 4,5-diamino-N-(3-(3-hydroxy-2-oxopyridin-1(2H)-yl)propyl)pentanamide] |  | 99 | 85 | 86 | 84 | 110 | 102 | 91 | 94 | 97 | 94 | 89 | 90 |  | almost total disappearance of the free scavenger
5 | NCC(N)CCCNC(=O)CCn1cccc(O)c1=O (stereo not shown) [Compound 37a, N-(4,5-diaminopentyl)-3-(3-hydroxy-2-oxopyridin-1(2H)-yl)propanamide] |  | 97 | 103 | 99 | 93 | 93 | 112 | 96 | 99 | 112 | 107 | 124 | 105 |  | almost total disappearance of the free scavenger
